The source of these data is ChEMBL document CHEMBL1201862, “PubChem BioAssay data set” (2004).

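A five-concentration, 48-hour dose response in 96-well plates underlies each endpoint, interpolated linearly between surrounding concentrations. GI50 = concentration required for 50% inhibition of growth.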 Active and inactive are the calls of the source. Cut-off read from the data, not from the text of the source: active = GI50 up to about 1.1 µM and inactive = higher.

Test systems include MOLT-4; SK-MEL-5; CCRF-CEM; NCI-H460; HL-60; HCT-116; NCI/ADR-RES; U-251; KM12; DU-145; UACC-62; Malme-3M; SR; BT-549; MCF7; SW-620; A498; UO-31; T47D; SF-268.
Holding throughout (experiment): NCI-60 cell line screen, 48 h

Consider `CC(OC(C)(C)C)[C@H](NC(=O)OC(C)(C)C)C(=O)O` (stereo not given in full), for which the GI50 with MOLT-4, in the assay on SK-MEL-5, in the assay on CCRF-CEM, in the assay with NCI-H460, in the assay with HL-60 and in the assay with HCT-116 was > 100 µM (inactive) in each case. For the same compound, the GI50 in the assay with NCI/ADR-RES, with U-251, with KM12, with DU-145, in the assay with UACC-62 and with Malme-3M was > 100 µM (inactive) in each case. The GI50 in the assay on SR, in the assay on BT-549, in the assay with MCF7, with SW-620, with A498 and in the assay on UO-31 was > 100 µM (inactive) each time. Further, the GI50 in the assay on T47D and with SF-268 was > 100 µM (inactive) in each case.
For the compound `COc1ccccc1C1C2=C(COC2=O)OC(C)(C)Oc2cc3c(cc21)OCO3` (stereo not given), the GI50 in the assay with MOLT-4 was 3.82 µM (inactive); in the assay on SK-MEL-5, 3.36 µM (inactive); in the assay on CCRF-CEM, 4.06 µM (inactive); with NCI-H460 it was 3.6 µM (inactive); in the assay on HL-60, 1.35 µM (inactive); with HCT-116, 3.75 µM (inactive). The GI50 with NCI/ADR-RES is 3.18 µM (inactive); in the assay on U-251, 3.85 µM (inactive); in the assay with KM12, 1.11 µM (active); in the assay on DU-145 it was 3.57 µM (inactive); in the assay on UACC-62, 3.37 µM (inactive); with Malme-3M, 3.89 µM (inactive). For the same compound, the GI50 in the assay on SR is 3.44 µM (inactive); with BT-549, > 10 µM (inactive); in the assay on MCF7, 3.15 µM (inactive); with SW-620 it was 3.67 µM (inactive); in the assay with A498, 3.06 µM (inactive); in the assay on UO-31 it was 10 µM (inactive). The GI50 was 5.93 µM (inactive) in the assay on T47D and 7.4 µM (inactive) with SF-268.
In the case of `COc1ccc2c(c1)-c1nc(=O)n(CCCN(C)C)c3ccc([N+](=O)[O-])c(c13)N2`, the GI50 is 0.215 µM (active) in the assay on MOLT-4; 0.875 µM (active) in the assay with SK-MEL-5; 0.117 µM (active) in the assay on CCRF-CEM; 0.435 µM (active) with NCI-H460; 1.86 µM (inactive) with HL-60; 0.293 µM (active) with HCT-116. The GI50 was 1.88 µM (inactive) in the assay with NCI/ADR-RES; 1.43 µM (inactive) in the assay on U-251; 0.873 µM (active) with KM12; 0.776 µM (active) in the assay with DU-145; 8.87 µM (inactive) in the assay on UACC-62; 0.752 µM (active) in the assay on Malme-3M. The GI50 was 0.406 µM (active) in the assay with SR; 3.85 µM (inactive) in the assay with BT-549; 0.448 µM (active) in the assay on MCF7; 0.282 µM (active) in the assay on SW-620; 3.39 µM (inactive) in the assay with A498; 0.682 µM (active) with UO-31. In addition, the figures for the GI50 in the assay with T47D and with SF-268 were 15.5 µM (inactive) and 0.789 µM (active), respectively.
As for `CC(=O)OCC1OC(n2c3c(c(-c4ccc(C)cc4)c(C#N)c2=S)C(=O)CC(C)(C)C3)C(OC(C)=O)C(OC(C)=O)C1OC(C)=O` (stereo not given), the GI50 is 25.1 µM (inactive) in the assay on MOLT-4; 26.9 µM (inactive) with SK-MEL-5; 31.6 µM (inactive) with CCRF-CEM; 42.2 µM (inactive) in the assay with NCI-H460; 23.5 µM (inactive) in the assay with HL-60; 34.8 µM (inactive) in the assay with HCT-116. Moreover, the GI50 in the assay on NCI/ADR-RES is 57.4 µM (inactive); in the assay on U-251, 30.3 µM (inactive); in the assay on KM12, 36.4 µM (inactive); with DU-145 it was 50.4 µM (inactive); in the assay with UACC-62, 18.9 µM (inactive); in the assay with Malme-3M, > 100 µM (inactive). Also, the GI50 is 24.1 µM (inactive) with SR; 19.3 µM (inactive) with BT-549; 25.6 µM (inactive) in the assay with MCF7; 46 µM (inactive) in the assay with SW-620; 32.1 µM (inactive) with A498; 58.5 µM (inactive) in the assay with UO-31. Further, the GI50 in the assay with T47D is > 10 µM (inactive); in the assay on SF-268 it was 28.6 µM (inactive).
`N#CC12C(=O)N=C(N)C1(C#N)C(c1ccco1)NC1=C2CCCC1` (stereo not given): the GI50 in the assay with MOLT-4, with SK-MEL-5, in the assay on CCRF-CEM, with NCI-H460, with HL-60 and with HCT-116 was > 100 µM (inactive) in each case. Moreover, the GI50 in the assay on NCI/ADR-RES, with U-251, in the assay with KM12, in the assay with DU-145, with UACC-62 and in the assay on Malme-3M was > 100 µM (inactive) throughout. Also, the GI50 was > 100 µM (inactive) with SR; > 100 µM (inactive) with BT-549; 75 µM (inactive) with MCF7; > 100 µM (inactive) in the assay on SW-620; > 100 µM (inactive) in the assay with A498; > 100 µM (inactive) with UO-31. The GI50 in the assay with T47D and in the assay with SF-268 was > 100 µM (inactive) throughout.
Take `Cc1cc(S(=O)(=O)Nc2nc(Nc3ccccc3)n[nH]2)c(SCC(=O)O)cc1Cl`: the GI50 in the assay on MOLT-4, in the assay on SK-MEL-5, in the assay on CCRF-CEM, in the assay on NCI-H460, in the assay on HL-60 and in the assay with HCT-116 was > 100 µM (inactive) throughout. Besides, the GI50 with NCI/ADR-RES, in the assay with U-251, with KM12, in the assay with DU-145, with UACC-62 and with Malme-3M was > 100 µM (inactive) in each case. The GI50 in the assay on SR, in the assay with BT-549, in the assay on MCF7, in the assay on SW-620, in the assay with A498 and with UO-31 was > 100 µM (inactive) in each case. Moreover, the GI50 with T47D and in the assay with SF-268 was > 100 µM (inactive) each time.
Take `COC(=O)/C=C1/OC(c2ccc(Br)cc2)=C(Br)C1=O`: the GI50 in the assay with MOLT-4 was 2.42 µM (inactive); in the assay with SK-MEL-5 it was 7.48 µM (inactive); with CCRF-CEM it was 1.82 µM (inactive); with NCI-H460, 14.5 µM (inactive); in the assay on HL-60, 2.06 µM (inactive); in the assay with HCT-116 it was 3 µM (inactive). In addition, the GI50 was 9.4 µM (inactive) in the assay on NCI/ADR-RES; 2.57 µM (inactive) in the assay on U-251; 8.07 µM (inactive) with KM12; 12.7 µM (inactive) in the assay on DU-145; 7.05 µM (inactive) with UACC-62; 7.94 µM (inactive) in the assay with Malme-3M. Besides, the GI50 with SR was 0.179 µM (active); in the assay on BT-549, 5.28 µM (inactive); with MCF7 it was 10.5 µM (inactive); with SW-620, 2.6 µM (inactive); in the assay with A498 it was 16.6 µM (inactive); with UO-31 it was 11.7 µM (inactive). Further, the GI50 was 5.55 µM (inactive) in the assay with T47D and 6.93 µM (inactive) in the assay on SF-268.
